From ChEMBL document CHEMBL4828716, “Further investigation of harmicines as novel antiplasmodial agents: Synthesis, structure-activity relationship and insight into the mechanism of action” (Eur J Med Chem, 2021)
Active and inactive are the calls of the source. No cut-off for these calls is given here.

Key:
Plasmodium falciparum [1] = experiment: Antiplasmodial activity against chloroquine-resistant erythrocytic stage Plasmodium falciparum Dd2 assessed as inhibition of parasite growth incubated for 3 days by HRP2-ELISA; type: functional, organism-based; conditions: Dd2, 72 h
Plasmodium falciparum [2] = experiment: Antiplasmodial activity against chloroquine-sensitive erythrocytic stage Plasmodium falciparum 3D7 assessed as inhibition of parasite growth incubated for 3 days by HRP2-ELISA; type: functional, organism-based; conditions: 3D7, 72 h
Plasmodium berghei = experiment: Antiplasmodial activity against hepatic stage Plasmodium berghei infected in Huh-7 cells assessed as cell viability incubated for 1 hrs by bioluminescence assay; type: functional, organism-based; conditions: for IC50: Huh-7, 1 h
HepG2 = experiment: Cytotoxicity against human HepG2 cells assessed as cell growth inhibition incubated for 1 day by neutral red assay; type: functional, cell-based; conditions: HepG2, 24 h
[3] = Selectivity index, ratio of IC50 for human HepG2 cells to IC50 for […] erythrocytic stage Plasmodium falciparum 3D7; type: toxicity; conditions: read-out: Selectivity Index

| Compound | IC50 (Plasmodium falciparum [1]) | IC50 (Plasmodium falciparum [2]) | Activity (Plasmodium berghei) | IC50 (HepG2) | selectivity ratio [3] | IC50 (Plasmodium berghei) |
| --- | --- | --- | --- | --- | --- | --- |
| COc1ccc(/C=C/C(=O)OCc2cn(Cc3nccc4c3[nH]c3ccccc34)nn2)cc1 | 39.2 µM | > 55.6 µM |  |  |  |  |
| COc1ccc(/C=C/Cn2cc(COc3ccc4[nH]c5c(C)nccc5c4c3)nn2)cc1 | 1.81 µM | 0.6 µM | Active | 88 µM | 147 |  |
| O=C(/C=C/c1cccc(C(F)(F)F)c1)NCc1nccc2c1[nH]c1ccccc12 | > 27.8 µM | > 27.8 µM |  |  |  |  |
| O=C(/C=C/c1cccc(F)c1)OCc1cn(Cc2nccc3c2[nH]c2ccccc23)nn1 | > 20.1 µM | > 17.3 µM |  |  |  |  |
| Cc1nccc2c1[nH]c1ccc(OCc3cn(C/C=C/c4ccccc4)nn3)cc12 | 2.12 µM | 0.61 µM | Active | 10.1 µM | 16.6 |  |
| COc1ccc(/C=C/C(=O)OCc2cn(Cc3cc4c([nH]c5ccccc54)c(C)n3)nn2)cc1 | > 27.8 µM | > 27.8 µM | Active |  |  |  |
| Cc1nc(Cn2cc(COC(=O)/C=C/c3ccc(Cl)cc3)nn2)cc2c1[nH]c1ccccc12 | > 27.8 µM | 21.4 µM | Active | 70.5 µM | 3.29 |  |
| Cc1nc(Cn2cc(COC(=O)/C=C/c3cccc(F)c3)nn2)cc2c1[nH]c1ccccc12 | > 27.8 µM | > 27.8 µM | Active |  |  |  |
| Cc1nc(CNC(=O)/C=C/c2ccc(C(F)(F)F)cc2)cc2c1[nH]c1ccccc12 | 5.97 µM | 2.3 µM | Active | 33.3 µM | 14.5 |  |
| COc1ccc(/C=C/C(=O)NCc2nccc3c2[nH]c2ccccc23)cc1 | > 27.8 µM | > 27.8 µM |  |  |  |  |
| O=C(/C=C/c1cccc(Br)c1)OCc1cn(Cc2nccc3c2[nH]c2ccccc23)nn1 | > 19.1 µM | > 13.2 µM |  |  |  |  |
| Cc1nc(Cn2cc(COC(=O)/C=C/c3cccc(Br)c3)nn2)cc2c1[nH]c1ccccc12 | 11.1 µM | 16.4 µM | Active | 110 µM | 6.71 |  |
| Cc1nc(CO)cc2c3ccccc3n(Cc3cn(C/C=C/c4ccc(Cl)cc4)nn3)c12 | > 23.6 µM | > 19.9 µM | Active |  |  |  |
| COc1ccc2c3ccnc(C)c3n(CCNC(=O)/C=C/c3ccc(C(F)(F)F)cc3)c2c1 | 0.17 µM | 0.04 µM |  | 5.84 µM | 146 | 8.4 µM |
| O=C(/C=C/c1cccc(F)c1)NCc1nccc2c1[nH]c1ccccc12 | > 27.8 µM | > 27.8 µM |  |  |  |  |
| Cc1nc(CO)cc2c3ccccc3n(Cc3cn(C/C=C/c4ccccc4)nn3)c12 | > 19.8 µM | > 27.8 µM | Active |  |  |  |
| Cc1nc(CNC(=O)/C=C/c2ccc(F)cc2)cc2c1[nH]c1ccccc12 | 13.3 µM | 4.13 µM | Active | 12.5 µM | 2.99 |  |
| Cc1nccc2c1[nH]c1ccc(OCc3cn(C/C=C/c4cccc(F)c4)nn3)cc12 | 2.28 µM | 0.55 µM | Active | 10.5 µM | 19.1 |  |
| O=C(/C=C/c1ccc(Cl)cc1)NCc1nccc2c1[nH]c1ccccc12 | > 27.8 µM | > 27.8 µM |  |  |  |  |
| Cc1nc(CNC(=O)/C=C/c2cccc(Br)c2)cc2c1[nH]c1ccccc12 | 1.48 µM | 3.23 µM | Active | 9.64 µM | 2.98 |  |
| Cc1nccc2c1[nH]c1ccc(OCc3cn(C/C=C/c4cccc(Br)c4)nn3)cc12 | 0.73 µM | 0.26 µM | Active | 6.13 µM | 23.6 |  |
| COc1ccc2c(c1)[nH]c1c(C)nccc12 [HARMINE] | > 27.7 µM |  |  | > 250 µM | 30 |  |
| COc1ccc(/C=C/C(=O)NCCOc2ccc3[nH]c4c(C)nccc4c3c2)cc1 | 2.86 µM | 1.17 µM | Active | > 250 µM | > 214 |  |

| Compound | IC50 (Plasmodium falciparum [1]) | IC50 (Plasmodium falciparum [2]) | Activity (Plasmodium berghei) | IC50 (HepG2) | selectivity ratio [3] | IC50 (Plasmodium berghei) |
| --- | --- | --- | --- | --- | --- | --- |
| O=C(/C=C/c1ccccc1)OCc1cn(Cc2nccc3c2[nH]c2ccccc23)nn1 | > 20.2 µM | > 27.8 µM |  |  |  |  |
| Cc1nccc2c1[nH]c1ccc(OCCNC(=O)/C=C/c3cccc(Br)c3)cc12 | 0.63 µM | 0.19 µM | Active | 7.57 µM | 39.8 |  |
| Cc1nccc2c1[nH]c1ccc(OCCNC(=O)/C=C/c3ccc(F)cc3)cc12 | 1.67 µM | 0.95 µM | Active | > 250 µM | > 263 |  |
| COc1ccc(/C=C/Cn2cc(Cn3c4ccccc4c4cc(CO)nc(C)c43)nn2)cc1 | > 16.9 µM | 18.2 µM | Active |  |  |  |
| Cc1nc(CNC(=O)/C=C/c2ccccc2)cc2c1[nH]c1ccccc12 | 10.2 µM | 5.78 µM | Active | 7.05 µM | 1.29 |  |
| Cc1nccc2c1[nH]c1ccc(OCc3cn(C/C=C/c4ccc(Cl)cc4)nn3)cc12 | 0.95 µM | 0.57 µM | Active | 3.95 µM | 6.93 |  |
| Cc1nc(CNC(=O)/C=C/c2ccc(Cl)cc2)cc2c1[nH]c1ccccc12 | 8.38 µM | 2.92 µM | Active | 11.3 µM | 3.88 |  |
| Cc1nc(CNC(=O)/C=C/c2cccc(C(F)(F)F)c2)cc2c1[nH]c1ccccc12 | 7.4 µM | 2.01 µM | Active | 9.37 µM | 4.66 |  |
| Cc1nccc2c1[nH]c1ccc(OCCNC(=O)/C=C/c3ccccc3)cc12 | 2.47 µM | 1.55 µM | Active | 12 µM | 7.75 |  |
| Cc1nc(CO)cc2c3ccccc3n(Cc3cn(C/C=C/c4cccc(Br)c4)nn3)c12 | 18.4 µM | 6.28 µM | Active | > 125 µM | > 19.9 |  |
| Cc1nccc2c1[nH]c1ccc(OCCNC(=O)/C=C/c3cccc(C(F)(F)F)c3)cc12 | 0.32 µM | 0.12 µM | Active | 6.14 µM | 51.2 |  |
| Cc1nc(CNC(=O)/C=C/c2cccc(F)c2)cc2c1[nH]c1ccccc12 | 12.7 µM | 5.74 µM | Active | 15.8 µM | 2.76 |  |
| O=C(/C=C/c1cccc(Br)c1)NCc1nccc2c1[nH]c1ccccc12 | > 27.8 µM | > 27.8 µM |  |  |  |  |
| O=C(/C=C/c1ccc(C(F)(F)F)cc1)NCc1nccc2c1[nH]c1ccccc12 | > 55.6 µM | > 55.6 µM |  |  |  |  |
| O=C(/C=C/c1ccc(F)cc1)NCc1nccc2c1[nH]c1ccccc12 | > 13.9 µM | > 13.9 µM |  |  |  |  |
| O=C(/C=C/c1ccc(Cl)cc1)OCc1cn(Cc2nccc3c2[nH]c2ccccc23)nn1 | > 55.6 µM | > 55.6 µM |  |  |  |  |
| Cc1nccc2c1[nH]c1ccc(OCCNC(=O)/C=C/c3ccc(Cl)cc3)cc12 | 0.92 µM | 0.36 µM | Active | > 250 µM | > 694 |  |
| COc1ccc2c3ccnc(C)c3n(CCNC(=O)/C=C/c3cccc(C(F)(F)F)c3)c2c1 | 0.33 µM | 0.06 µM |  | 66.3 µM | 1110 | 1.9 µM |
| Cc1nccc2c1[nH]c1ccc(OCCNC(=O)/C=C/c3cccc(F)c3)cc12 | 1.3 µM | 1.11 µM | Active | 37.6 µM | 33.9 |  |
| COc1ccc(/C=C/C(=O)NCc2cc3c([nH]c4ccccc43)c(C)n2)cc1 | 10.7 µM | 6.5 µM | Active | 10.4 µM | 1.6 |  |
| Cc1nccc2c1[nH]c1ccc(OCCNC(=O)/C=C/c3ccc(C(F)(F)F)cc3)cc12 | 0.35 µM | 0.12 µM | Active | 3.59 µM | 29.9 |  |
| O=C(/C=C/c1ccccc1)NCc1nccc2c1[nH]c1ccccc12 | > 55.6 µM | > 28 µM |  |  |  |  |
| Cc1nc(Cn2cc(COC(=O)/C=C/c3ccccc3)nn2)cc2c1[nH]c1ccccc12 | > 27.8 µM | > 20 µM | Active |  |  |  |
